The values that follow come from ChEMBL document CHEMBL1151983, “Antiprotealide is a natural product” (J Nat Prod, 2009).

As a reminder, the IC50 is the point on the concentration scale where inhibition reaches its midpoint. A low value points to greater potency.

“And” between values parts separate entries of the source, which are not always exact repeats. Equal entries are not always repeated. Bounds are passed on as bounds.

A short description of test [1]: Inhibition of caspase-like activity of rabbit 20S proteasome. Also noted: species or system Oryctolagus cuniculus.
Test [2] can be described thus: Inhibition of trypsin-like activity of rabbit 20S proteasome. Also on record: species or system Oryctolagus cuniculus.
The subject of the next test is RPMI-8226. Put plainly: Cytotoxicity against human RPMI8226 cells after 48 hrs by resazurin assay. The class given is functional, cell-based.
Test [3] is described as follows: Inhibition of chymotrypsin-like activity of rabbit 20S proteasome. Also noted: species or system Oryctolagus cuniculus.

Take `CC(C)[C@H](O)[C@@]12NC(=O)[C@H](CCCl)[C@]1(C)OC2=O` [ANTIPROTEALIDE]: the IC50 in test [1] was above 20000 nM; in test [2], 211 nM and 262 nM; in the test with RPMI-8226 (Homo sapiens, RPMI-8226, 48 h) it was 220 nM; in the test on RPMI-8226 (rpmi-8226), 283 nM; in test [3], 27 nM and 31 nM.

For the compound `C[C@@]12OC(=O)[C@]1([C@@H](O)[C@@H]1C=CCCC1)NC(=O)[C@@H]2CCCl` [MARIZOMIB], the IC50 was found to be 364 nM in test [1]; 34 nM in test [2]; 11 nM in the test with RPMI-8226 (Homo sapiens, RPMI-8226, 48 h); 4 nM in test [3].
